Measurements reported in patent US11384159B2, “B-1,3-1,6-glucan powder, glucan-containing composition, method for producing B-1,3-1,6-glucan powder, inclusion complex, method for producing inclusion complex, and method for recovering guest molecule” (MITSUBISHI GAS CHEMICAL COMPANY, INC., priority 2017, dated 2022).

Test: Inclusion of poorly water-soluble substance (curcumin): absorbance of supernatant at 405 nm
Format: physicochemical
Conditions: 0.002 mol/L monomer glucose; curcumin in acetone, 1 vol. % acetone; 3 hours, 25° C.; after centrifugation
Source text: In order to examine the change in characteristics of centrifugally regenerated β-1,3-1,6-glucan in association with powder formation, the envelopment and solubilizing capacity of the centrifugally regenerated β-1,3-1,6-glucan with respect to poorly water-soluble substances were compared.
β-1,3-1,6-glucan (lyophilized) derived from Aureobasidium pullulans was used as the centrifugally regenerated β-1,3-1,6-glucan powder, and curcumin (available from Tokyo Chemical Industry Co., Ltd., catalog number: 00435) was used as the poorly water-soluble substance.
The centrifugally regenerated β-1,3-1,6-glucan powder was dissolved in distilled water at a concentration of 1.0% by mass, and the glucose concentration was calculated through the phenol-sulfuric acid method, after which the solution was diluted and used. […]
Each centrifugally regenerated β-1,3-1,6-glucan solution having a monomer glucose concentration adjusted to 0.002 mol/L was prepared at an amount of 1 mL each, and an acetone solution of curcumin adjusted to a concentration of 0.05 mol/L was added such that the final concentration of acetone was 1 vol. %. […] Centrifugation (KUBOTA3740 (available from Kubota Manufacturing Co., Ltd.), 14000 G, 5 minutes) was carried out, the insoluble matter was removed, and the absorbance of the supernatant at a wavelength of 405 nm was compared. […]

absorbance (wavelength of 405 nm) originating from the curcumin in the supernatant: 0.045
Compound: COc1cc(/C=C/C(=O)CC(=O)/C=C/c2ccc(O)c(OC)c2)ccc1O [curcumin]
